Measurements: patent publication US11986450B2, “Methods and compositions for treating infection and inflammation with selenocyanate” (National Jewish Health, priority 2017, dated 2024)

How the values were obtained:
[1] = test system: 16HBE cells; assay: Sec-TrxR inhibition and HOSCN toxicity in lung cells (LDH release); type: cell-based, human; settings: auranofin 1 hour, then 300 μM HOSCN, viability 24 hours later
Description: FIG. 19. […] 16HBE cells were treated with auranofin at increasing concentrations for 1 hour and then exposed to 300 μM of either HOSCN or HOCl and viability was assessed by lactate dehydrogenase release 24 hours later. Vehicle (Veh).
Additional studies determine both leukocyte viability and bacterial viability after ^−SCN treatments and under simulated ^−SCN conditions with and without pharmacological inhibition of Sec-TrxR using auranofin and aurothioglucose (Rigobello, M. P., et al. (2008) Gold(I) complexes determine apoptosis with limited oxidative stress in Jurkat T cells. Eur J Pharmacol 582, 26-34). […] These assays have been described to study bacterial killing by neutrophils (Hampton, M. B., and Winterbourn, C. C. (1999) Methods for quantifying phagocytosis and bacterial killing by human neutrophils. J Immunol Methods 232, 15-22). Neutrophil death is assessed by flow cytometry using % of Annexin V (apoptosis marker) and propidium iodide (PI, necrosis marker) positive cells in each gate as shown in FIG. 7.

[2] = test system: Burkholderia cepacia complex (BCC); assay: BCC viability (CFU) after SeCN / peroxidase system; type: cell-based; settings: full peroxidase system, 1 hour, pH 7.4
Description: (§1) Human bronchial epithelial cells (HBE) or Burkholderia cepacia complex (BCC) were treated for 1 hour in PBS (control), SeCN only (grey bars), glucose oxidase only (hatch bar), or full peroxidase system (black bar) at pH 7.4 and then media replaces and viability assessed 24 hours later. HBE cell viability assessed by MTT and bacterial cell viability assessed by colony forming units.

[3] = target: recombinant E. coli Cys-TrxR (Escherichia coli, UniProt P0A9P4); assay: Kinetic analysis of HOSeCN metabolism; type: biochemical; settings: similar conditions
Description: FIG. 12. Kinetic analysis of HOSeCN metabolism by recombinant mouse Sec-TrxR2 and recombinant E. coli Cys-TrxR.

[4] = target: DmTrxR (containing Cys) (Drosophila melanogaster, UniProt P91938); assay: Inactivation of TrxR by oxidants; type: biochemical
Description: (§2) Based on data, it is expected that Sec-TrxR1 is able to metabolize both HOSCN and HOSeCN but not HOCl, and that Cys-TrxR's is unable to metabolize these oxidants. The active site Cys or Sec residue of each respective enzyme is oxidized to either Cys-SO2^− or Sec-SeO2^−. The Cys-TrxR cannot recover from this oxidation while the Sec-TrxR can. To test this, an inactivation assay is performed followed by structural analysis of the protein by MS. In the inactivation assay, (i) enzymes are reduced with NADPH, (ii) the enzymes are treated with oxidant followed by desalting to remove oxidant, and (iii) the enzyme is assayed for activity. […] The proteins are proteolyzed followed by LC-MS analyses. The LC-MS profiles are compared to control samples not treated with oxidant. This determines the exact mechanism of inactivation for each enzyme. […] This would explain why HOCl is highly inflammatory (nonspecific oxidation), and why HOSCN is used as a bactericide because it can rapidly inactivate proteins/enzyme by oxidation of sulfur amino acids (Cys, Met), but can be metabolized by the host cell by Sec-TrxR.

[5] = target: Sec-containing TrxR2 (Sec-TrxR2) (Mus musculus, UniProt Q9JLT4); assay: Inactivation of TrxR by oxidants; type: biochemical
Description: as §2

[6] = test system: clinical isolate of M. abscessus; assay: NTM killing, exposure to GOX, LPO, SeCN components; type: cell-based; settings: plated on LB agar immediately after mixing
Description: (§3) FIGS. 24A and 24B show —SeCN-mediated killing of NTM requires LPO, but not GOX, while LPO/—SeCn has no effect upon B. Cepacia. […] All conditions with GOX also contained dextrose, the required substrate of GOX for H2O2 production.
(§4) Susceptibility of NTM species to both HOSCN- and HOSeCN-mediated killing. […] Given the shorter amount of time necessary for —SeCN-mediated killing of NTM compared to other bacteria species (FIGS. 24A and 24B), the possibility that the mechanism responsible for —SeCN-mediated killing of NTM was unique compared to —SCN-mediated killing of NTM and —SeCN-mediated killing of other species is determined. […] Since killing required LPO, the inventors believe that endogenous H2O2 production by NTM provided the H2O2 required for the generation of HOSeCN via LPO and —SeCN.

[7] = test system: Burkholderia cepacian clinical isolate; assay: B. cepacia exposure to LPO and KSeCN; type: cell-based; settings: 1000 mU/mL LPO, no GOX; 0 hr and 1 hour at 37 C
Description: as §3, §4

[8] = test system: NTM strains (MABSC subspecies abscessus and massiliense); assay: LPO and SeCN dose responses in the killing of NTM; type: cell-based; settings: four NTM strains, dose curves of LPO and SeCN, plated on LB agar immediately after mixing
Description: FIGS. 25A and 25B show [LPO] and [—SeCN] dose responses in the killing of NTM. […] All samples were plated on LB immediately after mixing. CF0271-0636 and the ATCC strains were MABSC subspecies abscessus and CF0008-6241 was subspecies massiliense.
(§5) To examine the variability in susceptibility to HOSeCN-mediated killing amongst clinical NTM isolates obtained from CF airways, four NTM strains were exposed to dose curves of LPO and —SeCN (FIGS. 25A and 25B). While some variations were detected in the sensitivity to killing amongst the isolates, bacterial viability was reduced to less than 10% with all isolates when plated on LB agar immediately after reactions were mixed. Importantly, levels of —SeCN able to reduce bacterial viability were not toxic to human epithelial cells, even in the presence of GOX (FIG. 26).

[9] = test system: M. Abscessus; assay: Killing of NTM clinical isolate with LPO/GOX and SCN or SeCN; type: cell-based; settings: 1800 mU/mL LPO and 300 mU/mL GOX
Description: A HOSCN-sensitive nontuberculous Mycobacteria (NTM) clinical isolate ws exposed to LPO/GOX with either SCn or SeCN.
as §4

[10] = test system: Human bronchial epithelial cells (HBE); assay: HBE cell viability (MTT) after SeCN / peroxidase system; type: cell-based; settings: 1 hour treatment, viability 24 hours later, even in the presence of GOX
Description: as §1, §5

[11] = Inhaled SeCN in mice, ELF and serum levels by HPLC-EC; type: in vivo, Mice (C57B6); settings: aerosolized isotonic 0.05% (w/v) solution in PBS for 30 minutes
Description: Mice are exposed to aerosolized isotonic (0.9%) or isotonic ^−SeCN (0.05%) in a Plexiglas nebulizing chamber (see FIG. 32 for data). Isotonicity is maintained by substituting ^−SeCN for NaCl. All stock solutions are freshly prepared and 10 mL are nebulized over the 30 minute exposure using a pulmosonic nebulizer (DeVilbiss). Outcomes include: 1) changes in serum, ELF, lung and BAL cell GSH, ^−SCN and SeCN levels; 2) changes is lung tissue Sec-TrxR levels and activity; 3) changes in oxidative stress with assessments of DNA (8-hydroxy-2-deoxyguanosine, 8OH2dG) and lipid (4-hydroxynonenal, 4HNE) oxidation; 4) changes in lung and blood bacterial CFUs; 5) changes in bronchoalveolar lavage fluid (BALF) protein, IgM and lactate dehydrogenase (LDH) as markers of edema and injury; 6) BAL cell counts and differentials as markers of inflammation; 7) changes in BALF cytokine profile (Mouse pro-inflammatory-7 Ultra sensitive kit, IFNγ, IL-1β, IL-10, IL-12p70, IL-6, KC, TNFα, Meso Scale Discovery) as markers of inflammation; and 8) standard histopathology assessments.

[12] = test system: Pseudomonas aeruginosa, Burkholderia cepacia complex, methicillin resistant Staphylococcus aureus; assay: Killing of CF colonizing bacteria by SCN or SeCN with host defense system (LPO+GOX); type: cell-based; settings: 400 uM with LPO+GOX, 2 hours at room temperature, CFU
Description: Comparisons of HOSeCN on SCN sensitive and resistant strains of (FIGS. 30A & 30B) BCC clinical isolates, (FIGS. 30C & 30D) PA clinical isolates, and (FIG. 30E & FIG. 30F) MRSA clinical isolates. Bacteria were incubated for 2 hour with LPO, ^−SCN or SeCN, glucose and increasing amounts of GOX. The flux (HOX) of either HOSCN or HOSeCN was determined from standard curves of GOX/LPO and either HOSCN or HOSeCN. LC50 values were determined by curve fitting the data with nonlinear regression of log (agonist) vs normalized response.

[13] = test system: clinical isolate of M. abscessus; assay: SeCN-mediated killing of NTM in different buffer/media; type: cell-based
Description: FIGS. 27A-27C show —SeCN-mediaed killing of NTM requires active growth. A clinical isolate of M. abscessus was incubated in the listed buffer/media containing LPO at 1000 mU/ml and either KCL or SeCN. At the indicated time, samples were plated on LB agar as undiluted or 10× diluted in PBS. […] FIG. 27A in PBS; FIG. 27B in Middlebrook 7H9; FIG. 27C in Lysogeny Broth.
Given the reduced viability observed with immediate plating of LPO/—SeCN reactions on LB agar while —SCN-mediated killing required prolonged incubation, the possibility that HOSeCN generated on the LB agar was responsible for the loss in viability was determined. […] The inventors believe that the LPO in undiluted samples remained active on the LB agar, and that the HOSeCN-mediated killing of NTM, which was not metabolically active in the PBS buffer, requires active growth of the NTM, which occurs on the LB agar. To test this, the PBS buffer was substituted with either Middlebrook 7H9 media (without catalase) or LB broth (FIGS. 27A, 27B and 27C).

[14] = test system: NTM; assay: Preincubation of NTM with LPO, washing, then SeCN; type: cell-based; settings: data not shown
Description: The opposite is expected to be true for highly resistant NTMs. Adding exogenous catalase or an H2O2 scavenger is expected to inhibit —SeCN-mediated killing, while inhibiting endogenous catalase activity will increase —SeCN-mediated killing. In addition, LPO activity is expected to be localized to the surface of the bacterium. […] It is expected that very little Burkholderia will be killed when incubated in the presence of NTM/LPO/—SeCN, as the highly reactive HOSeCN species will be consumed by the NTM.

[15] = test system: M. massiliense clinical isolate; assay: Exogenous catalase inhibition of LPO/SeCN killing of NTM; type: cell-based; settings: high levels of catalase; 1 mM SeCN, 1600 mU/mL LPO
Description: FIG. 29A M. massiliense clinical isolate was incubated with 1 mM SeCN and either 1600 mU/mL LPO alone or with catalase.
It is well known that NTM species express catalase genes and have the ability to produce H2O2 (Wayne L G, Diaz G A. Detection of a novel catalase in extracts of Mycobacterium avium and Mycobacterium intracellulare. Infection and immunity. 1988; 56(4):936-41.). As H2O2 is a required substrate of LPO and no exogenous source of H2O2 is needed for LPO/—SeCN-mediated killing, it is expected that NTM provides the H2O2 for utilization by LPO to generate HOSeCN. The inventors have performed a set of experiments that provide evidence that endogenously produced H2O2 plays a role in the LPO/—SeCN-mediated killing of NTM. In FIG. 29, exogenous catalase is utilized in an attempt to inhibit the LPO-mediated generation of HOSeCN. At high levels of catalase, 100% of the killing was inhibited. The high levels of catalase required for inhibition may be due to several reasons, including instability of the enzyme on LB agar and the possibility that LPO may be bound to and concentrated on the bacterial surface, as has been previously described for Streptococci (Pruitt K M, et al. Lactoperoxidase binding to streptococci. Infection and immunity. 1979; 25(1):304-9). […]

[16] = LPO 1000 mU/ml, 0 to 4 hours, diluted 10× before plating

Sequence of Sec-containing TrxR2 (Sec-TrxR2) (Q9JLT4 35-524): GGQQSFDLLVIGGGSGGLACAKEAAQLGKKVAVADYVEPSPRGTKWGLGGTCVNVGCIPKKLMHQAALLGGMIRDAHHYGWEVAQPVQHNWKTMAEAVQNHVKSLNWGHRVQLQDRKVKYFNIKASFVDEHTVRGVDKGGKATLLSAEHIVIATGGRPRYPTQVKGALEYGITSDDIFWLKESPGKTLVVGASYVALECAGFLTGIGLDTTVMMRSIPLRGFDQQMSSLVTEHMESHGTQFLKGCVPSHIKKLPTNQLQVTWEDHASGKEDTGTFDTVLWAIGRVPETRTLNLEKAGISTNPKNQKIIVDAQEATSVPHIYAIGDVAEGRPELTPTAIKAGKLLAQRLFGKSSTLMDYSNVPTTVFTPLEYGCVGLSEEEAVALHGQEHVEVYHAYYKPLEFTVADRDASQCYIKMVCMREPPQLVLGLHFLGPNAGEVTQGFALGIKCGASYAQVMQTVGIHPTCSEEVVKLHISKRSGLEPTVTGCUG
Sequence of DmTrxR (containing Cys) (P91938 112-596 limits assumed): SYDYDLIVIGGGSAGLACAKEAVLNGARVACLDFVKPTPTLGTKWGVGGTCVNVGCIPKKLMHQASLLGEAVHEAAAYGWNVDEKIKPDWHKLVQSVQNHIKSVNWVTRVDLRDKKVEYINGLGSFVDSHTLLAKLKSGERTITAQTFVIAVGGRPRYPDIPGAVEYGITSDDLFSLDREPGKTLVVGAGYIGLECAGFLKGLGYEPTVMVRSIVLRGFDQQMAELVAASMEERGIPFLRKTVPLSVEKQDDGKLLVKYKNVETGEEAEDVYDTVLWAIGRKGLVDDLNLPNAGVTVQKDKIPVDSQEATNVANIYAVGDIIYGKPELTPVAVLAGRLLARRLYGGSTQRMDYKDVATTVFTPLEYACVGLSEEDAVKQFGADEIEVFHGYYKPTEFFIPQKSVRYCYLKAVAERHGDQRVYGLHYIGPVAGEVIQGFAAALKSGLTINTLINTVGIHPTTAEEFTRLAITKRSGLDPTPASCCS
Sequence of recombinant E. coli Cys-TrxR (P0A9P4 whole entry): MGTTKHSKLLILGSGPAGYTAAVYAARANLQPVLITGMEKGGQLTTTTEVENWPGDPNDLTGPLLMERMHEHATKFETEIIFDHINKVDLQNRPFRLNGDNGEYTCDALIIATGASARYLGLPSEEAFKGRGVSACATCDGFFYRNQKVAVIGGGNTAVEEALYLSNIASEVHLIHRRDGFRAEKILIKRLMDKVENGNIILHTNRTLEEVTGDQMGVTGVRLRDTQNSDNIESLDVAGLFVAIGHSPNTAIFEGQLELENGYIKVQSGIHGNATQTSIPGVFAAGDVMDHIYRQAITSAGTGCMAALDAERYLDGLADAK

For `CC(=O)OC[C@H]1O[C@@H]([S-])[C@H](OC(C)=O)[C@@H](OC(C)=O)[C@@H]1OC(C)=O.CCP(CC)CC.[Au+]` [auranofin], the “Sensitization of lung cells to HOSCN-mediated toxicity” value [1] was “sensitizes lung cells to HOSCN-mediated toxicity”.

For `N#C[Se]O` [HOSeCN, hyposelenocyanite], the “Bacterial cell viability (CFU)” value [2] was “killing bacteria”, the HOSeCN metabolism activity [3] was “no measurable activity” and the “Inactivation of DmTrxR by oxidant” value [4] was “is inactivated”. For the same compound, the “Inactivation of Sec-TrxR2 by oxidant” value [5] was “resists inactivation”.

In the case of `N#C[SeH]` [SeCN, selenocyanate], the “Killing of NTM with LPO, without GOX” value [6] is reported as “only required LPO and —SeCN”, the “Effect of LPO and SeCN alone upon B. cepacia” value [7] is reported as “no effect” and the Bacterial viability [8] is reported as “less than 10%”. For the same compound, the “Killing of M. Abscessus, compared with SCN” value [9] was “more efficient than SCN”, the “Toxicity to human epithelial cells (HBE viability)” value [10] was “not toxic” and the “ELF SeCN levels” value [11] was “high ELF SeCN levels”. The “Tolerability of inhaled SeCN” value [11] was “well tolerated”, the “Killing of thiocyanate susceptible and resistant bacteria, compared with SCN” value [12] was “as effective or superior” and the “Bacterial growth in Middlebrook 7H9 media” value [13, 16] was “prevented bacterial growth”. The “Viability in LB broth” value [13, 16] was “loss of viability”, the “Killing in PBS buffer” value ([13]; with LPO, samples diluted 10-fold before plating on LB agar) was “no killing detected” and the “Killing of NTM after LPO preincubation and washing” value [14] was “substantial killing”.

For catalase, the “Inhibition of LPO/SeCN-mediated killing” value [15] was 100%.

For `OCl` [HOCl, hypochlorite], the “Inactivation of DmTrxR by oxidant” value [4] was “is inactivated” and the “Inactivation of Sec-TrxR2 by oxidant” value [5] was “resists inactivation”.
